The values that follow are results of earlier work, collected in patent publication US12133849B2, “Method for treating cancer using a BCL-2 inhibitor in conjunction with an alpha- emitting radioimmunotherapeutic” (Actinium Pharmaceuticals, Inc., priority 2017, dated 2024).

Each structure is given as a SMILES string.

Take `CC1(C)CCC(CN2CCN(c3ccc(C(=O)NS(=O)(=O)c4ccc(NCC5CCOCC5)c([N+](=O)[O-])c4)c(Oc4cnc5[nH]ccc5c4)c3)CC2)=C(c2ccc(Cl)cc2)C1` [venetoclax]: the “patients experiencing grade 3 and/or 4 neutropenia” value was 40%.
